Experimental data from a melting point compilation (Tetko et al.; mined from patent text by program, amines drawn as free bases though some values may be those of a salt).

| melting point [°C] | SMILES |
| --- | --- |
| 97 to 99 | CSc1ccc(C(=O)C(C#N)C(=O)C(C)(C)C)c(Cl)c1 (stereo unspecified) |
| 130 | CN(C)C=NS(=O)(=O)c1cc(CCNC(=O)C(F)(F)F)ccc1OCC(F)(F)F |
| 245 to 248 | COc1cc2nc(N)nc(-c3ccc(O)cc3)c2cc1OC |
| 109 to 111 | COc1ccc(CONS(=O)(=O)c2ccc(C)cc2)cc1 |
| 197 to 199 | O=C(O)COc1ccc(C2=CC(=O)CC(c3ccccc3)C2)c(Cl)c1Cl (stereo unspecified) |
| 169 to 174 | COc1ccc(Nc2ccnc3nc(C)c(O)cc23)cc1 |
| 161 to 163 | Oc1ccc(Br)cc1C=Nc1cc(Cl)cc(Cl)c1 |
| 121 to 123 | COC(=N)Nc1ccc(C(F)(F)F)cc1 |
| 137 to 138 | COc1ccc(CN2C(=O)[C@H](NC(=O)COc3ccccc3)[C@@H]2c2ccccc2C2OCCO2)c(OC)c1 (relative stereo) |
| 119 to 121 | O=C(Nc1ccccc1)c1cscc1Cl |
| 135 to 137 | O=C1c2ccccc2C(=O)N1CCCOc1ccc(O)cc1 |
| 101 to 102 | COc1ccc(C(=O)c2ccccc2C(F)(F)F)c(O)c1Cl |
| 178 to 179 | CN(C)C(=O)CNc1cc(-c2ccccc2)nc(-c2ccc(C(F)(F)F)cc2)n1 |
| 212 to 214 | CC(=O)NC[C@H]1CN(c2ccc(N3CCC(n4nnc(-c5ccccc5)n4)CC3)c(F)c2)C(=O)O1 |
| 100 to 101 | COCc1cccc(C(=O)c2nc(OC)cc(OC)n2)c1N |
| 95 | COCC(COC)(Cc1ccccc1)Cc1ccccc1 |
| 65 to 66.5 | CCCCc1ccc2c(c1)Cc1ccccc1-2 |
| 168 | NC(=O)N(O)Cc1ccc(-c2ccccn2)s1 |
| 226 to 228 | Cn1cc(C(=O)O)c(=O)c2cc3cc(F)c(N4CCNC(c5ccc(OCCO)cc5)C4)c(F)c3nc21 (racemic) |
| 125 to 126 | COCc1c(-c2ccno2)ncc2[nH]c3ccc(OCc4ccccc4)cc3c12 |
| 224 to 226 | Cc1nn(-c2ccccn2)c2ncc(C(=O)c3ccccc3)c(O)c12 |
| 146 to 150 | Cc1ccc(Cn2nc(CCCc3ccc(OC(C)(C)C(=O)O)cc3)[nH]c2=O)cc1C |
| 232 to 233 | O=C(N[C@H](Cc1ccc(C(F)(F)F)cc1)[C@@H](O)c1cccc2ccccc12)c1ccc(C(F)(F)F)cc1 (racemic) |

The remaining lines, values behind:

| SMILES | melting point [°C] |
| --- | --- |
| O=C(CCCCCCCCCCBr)Nc1ccc(O)cc1 | 116 to 117 |
| CCNc1nc(CC)c(C(=O)c2ccc(Cl)c([N+](=O)[O-])c2)s1 | 149 to 152 |
| CCCCN(C)CCOc1ccc(Cn2c(-c3ccc(O)cc3)c(C)c3cc(O)ccc32)cc1 | 102 to 107 |
| C=CCC(CO)C(O)c1ccccc1 (stereo unspecified) | 41 to 43 |
| CCCN[C@H]1CC[C@H](Oc2ccc3[nH]ncc3c2SC)CC1 | 168 to 169 |
| CCOC(=O)C1(n2cc(Br)cc2C(=O)C(Cl)(Cl)Cl)CC(=O)NC1=O (stereo unspecified) | 196 to 198 |
| Cc1ccc2c3c(ccc2n1)OC[C@H](CNC[C@@H]1CCc2[nH]c4ccc(F)cc4c2C1)O3 | 89 to 93 |
| Cc1cc(S)n2nc(S(=O)(=O)O)nc2n1 | 254 to 256 |
| COc1ccc(-c2nc(N3CCOCC3)c3c(C)c(C#N)sc3n2)cc1 | 204 to 206 |
| CC(C)(C)OC(=O)NCCCCC(N)C(=O)Nc1ccccc1 (stereo unspecified) | 72 to 74.5 |
| CC(CCCC(C)(C)OC1CCCCO1)C1CCC2C3CC=C4CC(O)CC(O)C4(C)C3CCC12C (stereo unspecified) | 130 to 132 |
| Nc1cccc(F)c1C(=O)NCC(=O)O | 188 to 192 |
| OCc1ccc(OCCF)cc1 | 37.3 to 38 |
| Nc1ccc(C(=O)C[N+](=O)[O-])c(Cl)c1 | 131 to 133 |
| O=C(OCc1ccccc1)N1CCC(O)(C(=O)O)C1 (stereo unspecified) | 142 to 144 |
| CSc1sc(-c2ccncc2)c2c1C(=O)CCC2 | 115 to 116 |
| NCCCCCc1nc2ccccc2[nH]1 | 101 |
| O=C(NO)c1ccc(CNC(=O)c2[nH]c(-c3ccccc3)cc2-c2cccc(Br)c2)cc1 | 145 to 146 |
